From patent US20250092086A1, “CELASTROL SALTS, CRYSTALLINE FORMS, AND USES THEREOF” (ERX Pharmaceuticals Inc., priority 2022, published 2025)
≈ marks a conversion by molar mass, not a printed value. Entries after “also recorded” stand apart in the source; their conditions may differ. Read-outs that look alike come from different tables or passages of the source.

Experiments:
[1] = Solubility study of Compound I Form I in various solvents and temperatures; assay type: physicochemical
Procedure: The solubility of Compound 1 Form I was assessed in order to identify potential crystallization media. Compound 1 Form I was found very soluble in dichoromethane even at low temperature (10° C.).

[2] = Hygroscopicity (DVS), water sorption/desorption at 37° C.; assay type: physicochemical; details: for Hysteresis observed with the final mass at 50% RH / Water uptake, water sorption/desorption isotherms / Mass decrease as the RH was lowered to 0% / Mass increase as the RH was increased to 95% / Hysteresis with the final mass at 50% RH: DVS, 37° C.; for DVS (hygroscopicity): water sorption/desorption isotherms at 37° C., 0-95% RH
Procedure: The hygroscopicity experiments were carried out with a DVS Intrinsic from S.M.S. This technique is designed to accurately measure a sample's change in mass as it sorbs precisely controlled concentrations of water vapors in an air carrier gas. The method used for DVS experiments (at 37° C.) is summarized below. • Equilibrating 10 min at 50% RH • Decreasing to 0% RH in 60 min • Equilibrating 10 min at 0% RH • Increasing to 95% RH in 280 min • Equilibrating 10 min at 95% RH • Decreasing to 50% RH in 100 min • Equilibrating 20 min at 50% RH
(§1) The hygroscopic experiments were carried out with a DVS Intrinsic from S.M.S. This technique is designed to accurately measure a sample's change in mass as it sorbs precisely controlled concentrations of water vapors in an air carrier gas. All the methods used for DVS experiments are summarized below. It should be noticed that the temperature and relative humidity (RH) are pre-set according to the initial temperature and RH.
• Equilibrating 120 min at 50% RH • Decreasing to 0% RH in 60 min • Equilibrating 150 min at 0% RH • Increasing to 95% RH in 200 min • Equilibrating 360 min at 95% RH • Decreasing to 50% RH in 100 min • Equilibrating 150 min at 50% RH
as §1, with “hygroscopicity” for “hygroscopic”, “below, and it” for “below. It”
as §1, with “hygroscopicity” for “hygroscopic”

[3] = XRPD under temperature and relative humidity; assay type: physicochemical; details: for XRPD under temperature: impact / new crystalline phase: 25 to 100° C., RH set at 30%; for XRPD under relative humidity: impact / new crystalline phase: RH 10 to 80-90% at 40° C.; for Physical stability under the conditions tested (temperature and RH): XRPD, 25-100° C. and 10-90% RH at 40° C.
Procedure: Method 1: influence of temperature at ambient RH. RH was set at 30% in order to simulate a RH near from the ambient RH, and the temperature studied were 25-[…]-100° C.
Method 2: influence on RH at 40° C. The RH studied was at 10-30-80%.
These experiments studied the influence of temperature at ambient RH. RH was wet at 30% in order to simulate a RH near from the ambient RH, and the temperatures studied were 25-50-100° C.
These experiments studied the influence on RH at 40° C. The RH studied were 10-30-88%.
Using Method 1, the influence of temperature at ambient RH was studied. RH was set at 30% in order to simulate a RH near from the ambient RH, and the temperatures studied were 25-50-100° C. FIG. 24 provides the XRPD pattern representing the influence of temperature on Compound 1 Form I.
Using Method 2, the influence on RH at 40° C. was studied. The RH studied were 10-30-90%.
Using Method 1, the influence of temperature at ambient RH was studied. RH was set at 30% in order to simulate a RH near from the ambient RH. Temperature studied: 25-50-100° C.
Using Method 2, the influence on RH at 40° C. was studied at 10-30-90%.

[4] = Solubility in water at 37° C.; assay type: physicochemical
Source text: This compound can be considered as very slightly soluble (<1 g/L).

[5] = counter-ion, cited from earlier work; for pKa (B): basic function

Q: Which results are given for `CC1=C(O)C(=O)C=C2C1=CC=C1[C@@]2(C)CC[C@@]2(C)[C@@H]3C[C@](C)(C(=O)O)CC[C@]3(C)CC[C@]12C` [Compound 1 Form I, 3-hydroxy-9β,13α-dimethyl-2-oxo-24,25,26-trinoroleana-1(10),3,5,7-tetraen-29-oic acid]?
A: solubility ([1]; CH2Cl2/EtOH 20/80, organic solvent or mixture, CH2Cl2-2/EtOH 20/80, 40° C.): 31 to 40 mg/mL (≈ 68.8 to 88.8 mM); solubility ([1]; aqueous with cosolvent or surfactant or cyclodextrin, MeOH/Water 67/33/V, 10° C.): < 2 mg/mL; solubility ([1]; aqueous with cosolvent or surfactant or cyclodextrin, Water/EtOH 50/50, 10° C.): < 11 mg/mL; solubility ([1]; aqueous with cosolvent or surfactant or cyclodextrin, Water/EtOH 50/50, 25° C.): < 11 mg/mL; Solubility in dichoromethane ([1]; dichoromethane, even at low temperature (10° C.)): very soluble; Solubility in dichoromethane/ethanol 50:50 (V/V) at high temperature ([1]; dichoromethane/ethanol 50:50 (V/V), high temperature): relatively good solubility; Solubility in dichoromethane/ethanol 50:50 (V/V) at low temperature ([1]; dichoromethane/ethanol 50:50 (V/V), low temperature): low solubility; solubility ([1]; methanol, organic solvent or mixture, MeOH, 10° C.): 8 to 11 mg/mL (≈ 17.8 to 24.4 mM); solubility ([1]; methanol, organic solvent or mixture, MeOH, 50° C.): ~36 mg/mL (≈ 79.9 mM); solubility ([1]; organic solvent or mixture, CH2Cl2, 25° C.): > 120 mg/mL; solubility ([1]; organic solvent or mixture, CH2Cl2/EtOH 10/90, 10° C.): 11 to 15 mg/mL (≈ 24.4 to 33.3 mM); solubility ([1]; organic solvent or mixture, CH2Cl2/EtOH 10/90, 40° C.): < 25 mg/mL; solubility ([1]; organic solvent or mixture, CH2Cl2/EtOH 30/70, 10° C.): 25 to 45 mg/mL (≈ 55.5 to 99.9 mM); solubility ([1]; organic solvent or mixture, CH2Cl2/EtOH 50/50, 10° C.): > 40 mg/mL; solubility ([1]; organic solvent or mixture, CH2Cl2/EtOH 70/30, 10° C.): > 40 mg/mL; solubility ([1]; organic solvent or mixture, CH2Cl2/EtOH 90/10, 10° C.): > 40 mg/mL; solubility ([1]; organic solvent or mixture, Ethanol, 25° C.): 9 to 14 mg/mL (≈ 20 to 31.1 mM); solubility ([1]; organic solvent or mixture, Ethyl acetate, 10° C.): 20 to 40 mg/mL (≈ 44.4 to 88.8 mM); solubility ([1]; organic solvent or mixture, Propan-2-ol, 10° C.): < 25 mg/mL; solubility ([1]; organic solvent or mixture, Propan-2-ol, 50° C.): 25 to 40 mg/mL (≈ 55.5 to 88.8 mM); Hysteresis observed with the final mass at 50% RH [2]: No hysteresis; also recorded: slight hysteresis; Water uptake, water sorption/desorption isotherms [2]: < 0.2 % w/w; DVS (hygroscopicity) [2]: non hygroscopic; also recorded: non-hygroscopic; DVS (hygroscopicity) ([2]; listed as Compound I Form I): Non-hygroscopic; DVS (hygroscopicity) ([2]; listed as FI): Not hygroscopic; XRPD under temperature: impact / new crystalline phase [3]: No impact; XRPD under temperature: impact / new crystalline phase ([3]; listed as Compound I Form I): no new crystalline phase until 100 °C; XRPD under temperature: impact / new crystalline phase ([3]; listed as FI): =>No new crystalline; XRPD under relative humidity: impact / new crystalline phase [3]: No impact; XRPD under relative humidity: impact / new crystalline phase ([3]; listed as Compound I Form I): no new crystalline phase from 10 to 90% RH; XRPD under relative humidity: impact / new crystalline phase ([3]; listed as FI): =>No new crystalline; Physical stability under the conditions tested (temperature and RH) [3]: good stability

Q: Which results are given for `CC1=C(O)C(=O)C=C2C1=CC=C1[C@@]2(C)CC[C@@]2(C)[C@@H]3C[C@](C)(C(=O)O)CC[C@]3(C)CC[C@]12C` [Compound 1 Form II, 3-hydroxy-9β,13α-dimethyl-2-oxo-24,25,26-trinoroleana-1(10),3,5,7-tetraen-29-oic acid]?
A: Hysteresis observed with the final mass at 50% RH [2]: No hysteresis; Mass decrease as the RH was lowered to 0% [2]: ~0.08 % w/w; Mass increase as the RH was increased to 95% [2]: about 0.13 % w/w; Water uptake, water sorption/desorption isotherms [2]: < 0.2 % w/w; DVS (hygroscopicity) [2]: non-hygroscopic; DVS (hygroscopicity) ([2]; listed as FII): Not hygroscopic; XRPD under temperature: impact / new crystalline phase [3]: No impact; XRPD under temperature: impact / new crystalline phase ([3]; listed as FII): =>No new crystalline; XRPD under relative humidity: impact / new crystalline phase [3]: No impact; XRPD under relative humidity: impact / new crystalline phase ([3]; listed as FII): =>No new crystalline; Physical stability under the conditions tested (temperature and RH) [3]: good stability

Q: With `CC1=C(O)C(=O)C=C2C1=CC=C1[C@@]2(C)CC[C@@]2(C)[C@@H]3C[C@](C)(C(=O)O)CC[C@]3(C)CC[C@]12C` [Compound 1, (2R,4aS,6aS,12bR,14aS,14bR)-10-hydroxy-2,4a,6a,9,12b,14a-hexamethyl-11-oxo-1,2,3,4,4a,5,6,6a,11,12b,13,14,14a,14b-tetradecahydropicene-2-carboxylic acid] as the compound, how does the “Solubility in water at 37° C.” value [4] read?
A: below 1 g/L

Q: And the solubility ([4]; 37 °C)?
A: < 1 mg/mL

Q: And the “Solubility in water at 37° C.” value ([4]; listed as Free compound)?
A: (s < 1 g/L)

Q: And the “Hysteresis with the final mass at 50% RH” value [2]?
A: ~0.1 wt-%

Q: What about the “Mass decrease as the RH was lowered to 0%” value [2] of the same compound?
A: ~0.1 % w/w

Q: What about the “Mass increase as the RH was increased to 95%” value [2] of the same compound?
A: ~0.2 % w/w

Q: What about the “Water uptake, water sorption/desorption isotherms” value [2] of the same compound?
A: < 0.2 wt-%

Q: What about the “DVS (hygroscopicity)” value [2] of the same compound?
A: non-hygroscopic

Q: What about the “DVS (hygroscopicity)” value ([2]; listed as Free compound) of the same compound?
A: Non hygroscopic

Q: And the “DVS (hygroscopicity)” value ([2]; listed as free Celastrol)?
A: Non-hygroscopic

Q: And the “DVS (hygroscopicity)” value ([2]; listed as free compound)?
A: non hygroscopic

Q: What about the “XRPD under temperature: impact / new crystalline phase” value ([3]; listed as Free compound) of the same compound?
A: =>No new crystalline phase until

Q: What about the “XRPD under temperature: impact / new crystalline phase” value ([3]; listed as free Celastrol) of the same compound?
A: no new crystalline phase until 100 °C

Q: And the “XRPD under temperature: impact / new crystalline phase” value ([3]; listed as free compound)?
A: No impact

Q: And the “XRPD under relative humidity: impact / new crystalline phase” value ([3]; listed as Free compound)?
A: =>No new crystalline phase from

Q: What about the “XRPD under relative humidity: impact / new crystalline phase” value ([3]; listed as free Celastrol) of the same compound?
A: no new crystalline phase from 10 to 90% RH

Q: What about the “XRPD under relative humidity: impact / new crystalline phase” value ([3]; listed as free compound) of the same compound?
A: physically stable under relative humidity; also recorded: No impact

Q: What about the “Physical stability under the conditions tested (temperature and RH)” value ([3]; listed as free compound) of the same compound?
A: physically stable

Q: Which “Solubility in water at 37° C.” value [4] does the source give for `CC1=C(O)C(=O)C=C2C1=CC=C1[C@@]2(C)CC[C@@]2(C)[C@@H]3C[C@](C)(C(=O)O)CC[C@]3(C)CC[C@]12C` [Compound 2] here?
A: < 1.5 mg/mL

Q: And the “Solubility in water at 37° C.” value ([4]; listed as Trometamol salt)?
A: (s < 1.5 g/L)

Q: What about the “Hysteresis with the final mass at 50% RH” value [2] of the same compound?
A: ~3 % w/w

Q: And the “Mass decrease as the RH was lowered to 0%” value [2]?
A: ~3.8 % w/w

Q: What about the “Mass increase as the RH was increased to 95%” value [2] of the same compound?
A: 11 % w/w

Q: And the “Water uptake, water sorption/desorption isotherms” value [2]?
A: 2 ˜15 % w/w

Q: And the “DVS (hygroscopicity)” value [2]?
A: hygropscopic

Q: And the “DVS (hygroscopicity)” value ([2]; listed as Trometamol salt)?
A: Hygroscopic

Q: What about the “XRPD under temperature: impact / new crystalline phase” value [3] of the same compound?
A: No impact of temperature

Q: What about the “XRPD under temperature: impact / new crystalline phase” value ([3]; listed as Trometamol salt) of the same compound?
A: =>No new crystalline phase until 100 °C

Q: What about the “XRPD under relative humidity: impact / new crystalline phase” value [3] of the same compound?
A: formation of a new crystalline pattern

Q: And the “XRPD under relative humidity: impact / new crystalline phase” value ([3]; listed as Trometamol salt)?
A: less stable physically under relative humidity; also recorded: =>New crystaline phase from 80% RH

Q: With `NCCCC[C@H](N)C(=O)O` [L-Lysine] as the compound, how does the “pKa (A)” value ([5]; acid function) read?
A: 2.16

Q: What about the “pKa (B)” value [5] of the same compound?
A: 9.18

Q: Which “pKa (B)” value [5] does the source give for `NC(CO)(CO)CO` [trometamol, tris(hydroxymethyl)aminomethane] here?
A: 8.2
